Key:
[1] = cited from earlier work
[2] = X-ray diffraction solid state solubility of TFV in polymers; assay type: physicochemical; conditions: XRD of lyophilized polymer:TFV mass, pH 6-6.5
Procedure: X-ray diffraction (XRD) was used to study the solid state solubility of TFV in a series of polymers like HPMC-E5, HEC, and NaCMC-LV. TFV and polymers were dissolved together in milliQ water on a magnetic stirrer to achieve various polymer to TFV (P:T) ratios. pH was adjusted to 6-6.5 using sodium hydroxide equimolar to TFV. The solutions were then lyophilized using a Freezone 6 lyophilizer (Labconco, MO, USA). The powder obtained after lyophilization was scanned on a Philips X-ray diffractometer between 5-50° 2θ. A 37-minute scan was obtained. Similarly obtained XRD scans for lyophilized pure polymers and lyophilized TFV (pH 6-6.5) served as controls.

C[C@H](Cn1cnc2c(N)ncnc21)OCP(=O)(O)O [TFV, 9-[9(R)-2-(phosphonomethoxy)propyl]adenine]
pKa, phosphate groups (first value) [1]: 2.1 | pKa, phosphate groups (second value) [1]: 4.3 | pKa, primary amine group [1]: 7.3 | P:T ratio at which HPMC-E5, HEC and NaCMC-LV were able to solubilize TFV [2]: ≥ 3

Reference: patent publication US12453707B2, “Vaginal films” (priority 2017, dated 2025)
